Values joined by “and” are separate entries in the source; they are usually repeats but may differ in a detail not shown here. Equal entries are not always repeated.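 Test compounds were applied to cells in 96-well plates for 48 hours at 5 doses. Abbreviation: GI50, concentration required for 50% inhibition of growth. TGI: concentration producing complete growth inhibition.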
Key:
Experiment in all cases: NCI tumour cell line growth inhibition, 48 h
COLO 205 colon = test system: COLO 205 colon
OVCAR-8 ovarian = test system: OVCAR-8 ovarian
IGROV1 ovarian = test system: IGROV1 ovarian
SNB-75 CNS = test system: SNB-75 CNS
LOX IMVI melanoma = test system: LOX IMVI melanoma
SW-620 colon = test system: SW-620 colon
786-0 renal = test system: 786-0 renal
DU-145 prostate = test system: DU-145 prostate
BT-549 breast = test system: BT-549 breast
SK-MEL-2 melanoma = test system: SK-MEL-2 melanoma

Compound	GI50 (COLO 205 colon) [µM]	TGI (COLO 205 colon)	GI50 (OVCAR-8 ovarian) [µM]	TGI (OVCAR-8 ovarian)	GI50 (IGROV1 ovarian) [nM]	TGI (IGROV1 ovarian)	GI50 (SNB-75 CNS) [nM]	TGI (SNB-75 CNS) [µM]	GI50 (LOX IMVI melanoma) [nM]	TGI (LOX IMVI melanoma)	GI50 (SW-620 colon) [µM]	TGI (SW-620 colon)	GI50 (786-0 renal) [µM]	TGI (786-0 renal)	GI50 (DU-145 prostate) [µM]	TGI (DU-145 prostate)	GI50 (BT-549 breast) [µM]	TGI (BT-549 breast) [µM]	GI50 (SK-MEL-2 melanoma) [µM]	TGI (SK-MEL-2 melanoma)
CC[C@H](C)[C@H](NC(=O)c1nccn1C)C(=O)N(C)[C@H](C[C@@H](OC(C)=O)c1nc(C(=O)N[C@@H](Cc2ccccc2)C[C@H](C)C(=O)OC)cs1)C(C)C	0.99	4.11 µM	1.44	> 33.3 µM	704	> 33.3 µM	199	> 33.3	1590	> 33.3 µM	1.33	> 33.3 µM	1.17	14.5 µM	1.3	> 33.3 µM	0.398	3.94	0.806	> 33.3 µM
CN1N=Nc2c(C(F)(F)F)nn(-c3ccccc3)c2N(C)C1=O	> 47.9	> 70.4 µM	–	> 100 µM	> 100000	> 100 µM	> 100000	> 100	> 100000	> 100 µM	> 100	> 100 µM	> 100	> 100 µM	> 100	> 100 µM	> 100	> 100	> 100	> 100 µM
C[C@]12CC[C@H]3[C@@H](CCC4=C[C@@H](OC5OCC(OC6OC(CO)C(O)C(O)C6O)C(O)C5O)CC[C@@]43C=O)[C@@]1(O)CCC2C1=CC(=O)OC1 (some centres undefined)	–	3.25 µM	–	2.76 µM	–	2.66 µM	–	12.8	–	2.96 µM	–	9.23 µM	–	1.23 µM	–	1.44 µM	–	0.881	–	5.93 µM
CS(=O)(=O)Nc1cc(-c2ccc3ncnc(Nc4cccc(Cl)c4F)c3c2)cnc1Cl	4.23	27.8 µM	4.03	58.5 µM	1020	4.34 µM	463	7.43	1580	5.45 µM	3.31	37.7 µM	3.63	38.5 µM	3.69	29 µM	1.84	7.65	2.13	6.79 µM
CC(=O)O[C@H](C[C@H](C(C)C)N(C)C(=O)[C@@H](NC(=O)[C@H]1CCCCN1C)C(C)(C)C)c1nc(C(=O)N[C@@H](Cc2ccccc2)C[C@H](C)C(=O)O)cs1	< 0.0025	0.0053 µM	< 0.0025	> 25 µM	2.94	> 25 µM	< 2.5	> 25	< 2.5	> 25 µM	< 0.0025	> 25 µM	< 0.0025	> 25 µM	< 0.0025	–	0.00304	0.0645	< 0.0025	> 25 µM
O=[N+]([O-])c1ccc(NC(=S)N/N=C(\c2ccccc2)c2ccccn2)cc1	0.0423	2.52 µM and 3.88 µM	0.0275	1.06 µM and 1.42 µM	–	3.18 µM and 3.43 µM	–	3.76	1370	2.89 µM and 5.03 µM	0.0303	1.93 µM and 2.35 µM	1.01	2.17 µM and 2.49 µM	–	2.84 µM and 4.03 µM	–	3.01	2.05	4.44 µM and 3.69 µM
CC(C)(O)CCC(O)C(C)(O)C1CCC2(O)C3=CC(=O)C4(O)CC(O)C(O)CC4(C)C3CCC12C (centres undefined) (tested in a mixture with another compound)	–	> 100 µM	–	> 100 µM	–	> 100 µM	–	> 100	–	> 100 µM	–	> 100 µM	–	> 100 µM	–	> 100 µM	–	> 100	–	> 100 µM
CCC(=O)OC1=CN2C(=NC(c3ccc(N)cc3)=CC2c2cc(OC)c(OC)c(OC)c2)S1 (centres undefined)	3.72	10.7 µM	3.39	22.3 µM	2310	6.63 µM	5120	23.3	3450	13 µM	2.89	10.7 µM	4.57	23.4 µM	3.58	13.1 µM	4.57	19.4	5.93	20.4 µM
N#Cc1c(NCc2ccccc2)nc(NCc2ccccc2)c(C#N)c1-c1cccc(O)c1	36.7	> 100 µM	19.2	52.2 µM	19700	41.1 µM	39400	> 100	2960	11.5 µM	4.49	68.2 µM	13	27.6 µM	12.8	34.4 µM	10.1	35.8	6.23	23 µM
O=C(Nc1ccc(-c2ccnc(Nc3ccc(N4CCOCC4)cc3)n2)cc1)C1CCCN1 (centres undefined)	5.25	20.5 µM	5.09	28.3 µM	5160	25.8 µM	1960	12.5	2270	13.9 µM	6.14	25.1 µM	4.94	20.2 µM	7.14	37.4 µM	8.76	23	15.2	35.8 µM

Reference: PubChem BioAssay (NCI)
